The test system of data set [1] is P. aeruginosa. Here is the method:
(§1) The bacterial isolates were acquired from ATCC or the Canadian Ward Surveillance (CANWARD) study ([56]). CANWARD isolates were collected from infected patients admitted to participating medical centers across Canada.
(§2) The antibiotic or compound was serially diluted 2-fold in CAMHB on a 96-well plate and was incubated with equal volumes of bacterial inoculum overnight at 37°C. Wells containing only media were used as negative controls, and wells containing only bacteria were used as positive controls. Antibacterial activity was measured by the MIC, or the lowest concentration of agent required to inhibit visible bacterial growth. Turbidity was confirmed with a Molecular Devices (United States) EMax Plus microplate reader at a wavelength of 590 nm.

The subject of data set [2] is K. pneumoniae. Here is the method: as §1, §2
Data set [3] deals with E. cloacae. Here is the method:
as §1, §2

Data set [4] relates to E. coli. The settings on record: for Resistance phenotype of MDR clinical isolates (antibiotic susceptibility value): Table S4. Here is the method:
as §1
The antibiotic or compound was serially diluted 2-fold in CAMHB on a 96-well plate and was incubated with equal volumes of bacterial inoculum overnight at 37°C. Wells containing only media were used as negative controls, and wells containing only bacteria were used as positive controls. Antibacterial activity was measured by the MIC, or the lowest concentration of agent required to inhibit visible bacterial growth.

In data set [5] the test system is A. baumannii. In kind it is cell-based, Acinetobacter baumannii.
Description: Gram-negative and Gram-positive bacterial isolates were grown in lysogeny broth (LB) and brain heart infusion, respectively, overnight in a shaking incubator at 250 rpm and at 37°C.
The antibacterial activity of the antibiotics and compounds was assessed using the broth microdilution assay in accordance with Clinical Laboratory Standards Institute (CLSI) guidelines ([36]), and by following a previously described protocol ([27][–][29], [54], [55]). Bacterial culture grown overnight was diluted in saline to 0.5 McFarland turbidity and was further diluted 1:50 in CAMHB to attain a final concentration of 5 × 10^5 colony-forming units (cfu)/mL for inoculation. The antibiotic or compound was serially diluted 2-fold in CAMHB on a 96-well plate and was incubated with equal volumes of bacterial inoculum overnight at 37°C. Wells containing only media were used as negative controls, and wells containing only bacteria were used as positive controls. Antibacterial activity was measured by the MIC, or the lowest concentration of agent required to inhibit visible bacterial growth. Turbidity was confirmed with a Molecular Devices (United States) EMax Plus microplate reader at a wavelength of 590 nm.
Data set [6] deals with HK-2. In kind it is cell-based, human. Here is the method: (§3) Kidney cell lines, HK-2 (CRL-2190) and RPTEC/TERT1 (CRL-4031), and neural cell lines, U-87 MG (HTB-14) and SK-N-SH (HTB-11), were obtained from American Type Culture Collection (ATCC). HK-2 cells were cultured in T75 flasks with keratinocyte serum-free medium supplemented with bovine pituitary extract, human epidermal growth factor, and 2.5% FBS. RPTEC/TERT1 cells were cultured in T75 flasks with Dulbecco’s modified Eagle’s medium:F12 supplemented with the ATCC (United States) human telomerase reverse transcriptase immortalized RPTEC growth kit, G418 (0.1 mg/mL final concentration), and 2% FBS. Both U-87 MG and SK-N-SH cells were cultured in minimal essential media supplemented with 10% FBS. The cells were incubated in a humidified atmosphere at 5% CO2 and at 37°C.
(§4) The cytotoxicity of the compounds toward the mammalian cell lines was assessed using the cell viability assay protocols as previously described ([29]). Designated wells in 96-well plates were seeded with HK-2 (5,000 cells), RPTEC/TERT1 (8,000 cells), U-87 MG (7,000 cells), or SK-N-SH (8,000 cells) in 50 µL. Blank wells received an identical volume of only media. After incubating the cells for 24 h, all wells were treated with varying concentrations of the compound and incubated for 48 h. Subsequently, PrestoBlue reagent (Invitrogen, United States) was added to the wells to a final concentration of 10% (vol/vol), and the plate was incubated for an additional 1 h. Fluorescence was measured with a SpectraMax M2 plate reader (Molecular Devices, United States), at excitation and emission wavelengths of 560 and 590 nm, respectively. Values from the blank wells were subtracted from the corresponding wells containing cells. The cell viability relative to the controls with vehicle was calculated and presented as mean ± standard deviation of at least two experiments with five replicates each. CC50 values were obtained using GraphPad Prism (version 10.4.1) by non-linear regression (four-parameter logistic fit).

In data set [7] the test system is RPTEC/TERT1. In kind it is cell-based, human. The settings on record: 48 h. Here is the method:
as §3, §4

Data set [8] deals with A. baumannii. The experiment in a line: Checkerboard assay (antibiotic potentiation). In kind it is cell-based, Acinetobacter baumannii. The settings on record: A. baumannii ATCC 17978; compound alone. Here is the method: The interaction between the compounds and the antibiotics was evaluated using the fractional inhibitory concentration (FIC) index. FIC indices of ≤0.5 is synergistic, 0.5 < × ≤ 4 is additive, whereas >4 is antagonistic ([34]). […] .
as §1
The antibiotic and compounds were serially diluted 2-fold in CAMHB along the x- and y-axis, respectively, on a 96-well plate that was subsequently incubated with equal volumes of bacterial inoculum overnight at 37°C. Wells containing only media were used as negative controls, and wells containing only bacteria were used as positive controls. Synergy was measured by the FIC index, which is the summation of the individual FICs of the antibiotic and the compound. The FIC is calculated by dividing the MIC of one agent in the presence of another by the MIC of the agent alone. Turbidity was confirmed with a Molecular Devices (United States) EMax Plus microplate reader at a wavelength of 590 nm. The FBS studies were conducted by following a previously published protocol ([29], [50]). The FBS was inactivated by heating at 56°C for 30 min with constant swirling.

In data set [9] the test system is P. aeruginosa. The experiment in a line: Checkerboard assay (antibiotic potentiation). In kind it is cell-based, Pseudomonas aeruginosa. The settings on record: P. aeruginosa PAO1; compound alone. Here is the method:
The interaction between the compounds and the antibiotics was evaluated using the fractional inhibitory concentration (FIC) index. FIC indices of ≤0.5 is synergistic, 0.5 < × ≤ 4 is additive, whereas >4 is antagonistic ([34]).
Synergy was measured by the FIC index, which is the summation of the individual FICs of the antibiotic and the compound. The FIC is calculated by dividing the MIC of one agent in the presence of another by the MIC of the agent alone. […] The FBS studies were conducted by following a previously published protocol ([29], [50]). The FBS was inactivated by heating at 56°C for 30 min with constant swirling.

Molecules are shown by their SMILES. Converted amounts (≈) assume the structure as drawn. Read-outs that look alike come from different tables or passages of the source. Positions of bridges follow the written chain, without caps; N, C: chain ends. Non-standard residues stand in square brackets, D forms with d. Residues, ends and D or L forms follow the SMILES beside them. *: point of attachment. Agp = N=C(N)NC[C@H](N)C(=O)O; X1 = CC[C@H](C)CCCCC(=O)*; Octanoyl = CCCCCCCC(=O)*; Dab = NCC[C@H](N)C(=O)O; Dap = NC[C@H](N)C(=O)O

The values that follow come from paper PMC12587545, “Noncytotoxic polymyxin derivatives enhance antibiotic action against multidrug-resistant Gram-negative bacteria” (Antimicrobial Agents and Chemotherapy, 2025).

Consider `CC[C@H](C)CCCCC(=O)N[C@@H](CCN)C(=O)N[C@H](C(=O)N[C@@H](CCN)C(=O)N[C@H]1CCNC(=O)[C@H]([C@@H](C)O)NC(=O)[C@H](CCN)NC(=O)[C@H](CCN)NC(=O)[C@H](CC(C)C)NC(=O)[C@@H](CC(C)C)NC(=O)[C@H](CCN)NC1=O)[C@@H](C)O` [Colistin, colistin] (X1-[Dab]T[Dab][Dab][Dab][dL]L[Dab][Dab]T; lactam 4-C (inferred); N-terminus assumed), for which the MIC in data set [1] (P. aeruginosa 259-96916, clinical isolate) was found to be 0.5 µg/mL (≈ 0.428 µM); in data set [1] (P. aeruginosa 262-101856, clinical isolate), 2 µg/mL (≈ 1.71 µM); in data set [1] (P. aeruginosa 264-104354, clinical isolate), 1 µg/mL (≈ 0.855 µM); in data set [1] (P. aeruginosa 101243, colistin-resistant) it was 1024 µg/mL (≈ 876 µM); in data set [1] (P. aeruginosa 114228, colistin-resistant), 4 µg/mL (≈ 3.42 µM); in data set [2] (K. pneumoniae 113250, colistin-resistant), 256 µg/mL (≈ 219 µM). Moreover, the MIC in data set [2] (K. pneumoniae 116381) was 1 µg/mL (≈ 0.855 µM); in data set [3] (E. cloacae 117029) it was 0.25 µg/mL (≈ 0.214 µM); in [3] (E. cloacae 121887, colistin-resistant) it was over 16 µg/mL; in data set [4] (E. coli 94393, colistin-resistant), 4 µg/mL (≈ 3.42 µM); in data set [4] (E. coli 94474, colistin-resistant), 16 µg/mL (≈ 13.7 µM); in data set [4] (E. coli 107115) it was 0.125 µg/mL (≈ 0.107 µM). Also, the MIC is at most 0.25 µg/mL in data set [4] (E. coli 131629); 4 µg/mL (≈ 3.42 µM) in [5] (A. baumannii 92247, colistin-resistant); 0.5 µg/mL (≈ 0.428 µM) in data set [5] (A. baumannii 110193); 0.25 µg/mL (≈ 0.214 µM) in data set [5] (A. baumannii AB027); 0.25 µg/mL (≈ 0.214 µM) in data set [5] (A. baumannii AB031).

Regarding `CCCCCCCC(=O)N[C@@H](CNC(=N)N)C(=O)N[C@H](C(=O)N[C@@H](CNC(=N)N)C(=O)N[C@H]1CCNC(=O)[C@H]([C@@H](C)O)NC(=O)[C@H](CNC(=N)N)NC(=O)[C@H](CNC(=N)N)NC(=O)[C@H](CC(C)C)NC(=O)[C@@H](Cc2ccccc2)NC(=O)[C@H](CNC(=N)N)NC1=O)[C@@H](C)O` [Compound 2] (Octanoyl-[Agp]T[Agp][Dab][Agp][dF]L[Agp][Agp]T; lactam 4-C), the “CC50 in HK-2” value in data set [6] (48 h) turned out to be 26.9 µM. Also, in [7], the “CC50 in RPTEC/TERT1” value was 28 µM.

Turning to `CCCCCCCC(=O)N[C@@H](CN)C(=O)N[C@H](C(=O)N[C@@H](CC(=O)O)C(=O)N[C@H]1CCNC(=O)[C@H]([C@@H](C)O)NC(=O)[C@H](CN)NC(=O)[C@H](CN)NC(=O)[C@H](CC(C)C)NC(=O)[C@@H](Cc2ccccc2)NC(=O)[C@H](CN)NC1=O)[C@@H](C)O` [Compound 3] (Octanoyl-[Dap]TD[Dab][Dap][dF]L[Dap][Dap]T; lactam 4-C), the MIC in data set [1], in data set [4] and in [5] was over 128 µg/mL throughout. Moreover, the MICcompound in [8] and in data set [9] was over 128 µg/mL each time. In data set [6] (48 h), the “CC50 in HK-2” value came to 215.5 µM. Further, the “CC50 in RPTEC/TERT1” value in [7] stood at 627.2 µM.

For `CCCCCCCC(=O)N[C@@H](CCN)C(=O)N[C@H](C(=O)N[C@@H](CC(=O)O)C(=O)N[C@H]1CCNC(=O)[C@H]([C@@H](C)O)NC(=O)[C@H](CCN)NC(=O)[C@H](CCN)NC(=O)[C@H](CC(C)C)NC(=O)[C@@H](Cc2ccccc2)NC(=O)[C@H](CCN)NC1=O)[C@@H](C)O` [Compound 4] (Octanoyl-[Dab]TD[Dab][Dab][dF]L[Dab][Dab]T; lactam 4-C), the “CC50 in HK-2” value was found to be 236.1 µM in data set [6] and 236.8 µM in [6] (48 h). The “CC50 in RPTEC/TERT1” value in data set [7] came out at 238.8 µM.

In the case of `CCCCCCCC(=O)N[C@@H](CCN)C(=O)N[C@H](C(=O)N[C@@H](CCN)C(=O)N[C@H]1CCNC(=O)[C@H]([C@@H](C)O)NC(=O)[C@H](CCN)NC(=O)[C@H](CCN)NC(=O)[C@H]([C@@H](C)O)NC(=O)[C@@H]([C@H](C)O)NC(=O)[C@H](CCN)NC1=O)[C@@H](C)O` [Compound F230] (Octanoyl-[Dab]T[Dab][Dab][Dab][dT]T[Dab][Dab]T; lactam 4-C), the “CC50 in HK-2” value in data set [6] (48 h) worked out at 263.1 µM. For the same compound, the “CC50 in RPTEC/TERT1” value in data set [7] came to 471.4 µM.

With `CN(C)c1cc(CNCC(C)(C)C)c(O)c2c1C[C@H]1C[C@H]3[C@H](N(C)C)C(O)=C(C(N)=O)C(=O)[C@@]3(O)C(O)=C1C2=O` [OMC, omadacyline], the “Resistance phenotype (antibiotic susceptibility profile)” value in data set [1] (P. aeruginosa 259-96916) turned out to be 64; in [1] (P. aeruginosa 262-101856), 64; in [1] (P. aeruginosa 264-104354) it was 64; in data set [1] (P. aeruginosa 114228), 128; in data set [2] (K. pneumoniae 113250) it was 2; in [2] (K. pneumoniae 116381), 4. In addition, the “Resistance phenotype (antibiotic susceptibility profile)” value worked out at 1 in data set [5] (A. baumannii AB027) and 2 in data set [5] (A. baumannii AB031). Besides, the “Resistance phenotype of MDR clinical isolates (antibiotic susceptibility value)” value in [3] (E. cloacae 117029, Table S4) was 4; in data set [4] (E. coli 94393 (mcr-1 +)), 4; in [4] (E. coli 94474 (mcr-1 +)), 16; in data set [4] (E. coli 107115), 4.
